These results are taken from ChEMBL document CHEMBL1201862, “PubChem BioAssay data set” (2004).

Calls of active or inactive are those of the source. Some results are limits rather than exact numbers.

The target in assay [1] is T1, Heat shock factor protein 1 (Mus musculus, UniProt P38532).
T1 sequence (P38532 whole entry): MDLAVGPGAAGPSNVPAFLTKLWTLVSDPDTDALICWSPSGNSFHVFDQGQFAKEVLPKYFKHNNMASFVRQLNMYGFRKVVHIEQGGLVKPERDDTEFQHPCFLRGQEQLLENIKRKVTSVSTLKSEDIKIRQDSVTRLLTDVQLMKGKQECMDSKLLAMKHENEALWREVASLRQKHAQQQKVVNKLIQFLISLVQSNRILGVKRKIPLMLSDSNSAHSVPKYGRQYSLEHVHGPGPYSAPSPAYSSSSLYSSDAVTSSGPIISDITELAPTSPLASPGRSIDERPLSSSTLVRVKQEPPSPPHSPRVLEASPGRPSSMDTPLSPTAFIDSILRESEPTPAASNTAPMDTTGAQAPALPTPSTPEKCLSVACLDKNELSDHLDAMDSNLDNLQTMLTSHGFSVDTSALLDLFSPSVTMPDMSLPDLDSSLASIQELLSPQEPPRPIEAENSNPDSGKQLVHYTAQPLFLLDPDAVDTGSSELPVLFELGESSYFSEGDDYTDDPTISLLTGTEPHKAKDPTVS
Nature of the assay: decrease of HSF1-responsive luciferase luminescence – cell-based, NIH3T3, dose retest, confirmation (AID 2382).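 Also: NIH3T3 fibroblasts with HSF1-driven luciferase reporter stressed by proteasome inhibitor MG132; luminescence from HSF1-driven luciferase expression after 8 hours of MG132 stress.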 The format is functional.

In assay [2] the target is T2, Replicative DNA helicase DnaB (Mycobacterium tuberculosis, UniProt P9WMR3).
T2 sequence (P9WMR3 whole entry): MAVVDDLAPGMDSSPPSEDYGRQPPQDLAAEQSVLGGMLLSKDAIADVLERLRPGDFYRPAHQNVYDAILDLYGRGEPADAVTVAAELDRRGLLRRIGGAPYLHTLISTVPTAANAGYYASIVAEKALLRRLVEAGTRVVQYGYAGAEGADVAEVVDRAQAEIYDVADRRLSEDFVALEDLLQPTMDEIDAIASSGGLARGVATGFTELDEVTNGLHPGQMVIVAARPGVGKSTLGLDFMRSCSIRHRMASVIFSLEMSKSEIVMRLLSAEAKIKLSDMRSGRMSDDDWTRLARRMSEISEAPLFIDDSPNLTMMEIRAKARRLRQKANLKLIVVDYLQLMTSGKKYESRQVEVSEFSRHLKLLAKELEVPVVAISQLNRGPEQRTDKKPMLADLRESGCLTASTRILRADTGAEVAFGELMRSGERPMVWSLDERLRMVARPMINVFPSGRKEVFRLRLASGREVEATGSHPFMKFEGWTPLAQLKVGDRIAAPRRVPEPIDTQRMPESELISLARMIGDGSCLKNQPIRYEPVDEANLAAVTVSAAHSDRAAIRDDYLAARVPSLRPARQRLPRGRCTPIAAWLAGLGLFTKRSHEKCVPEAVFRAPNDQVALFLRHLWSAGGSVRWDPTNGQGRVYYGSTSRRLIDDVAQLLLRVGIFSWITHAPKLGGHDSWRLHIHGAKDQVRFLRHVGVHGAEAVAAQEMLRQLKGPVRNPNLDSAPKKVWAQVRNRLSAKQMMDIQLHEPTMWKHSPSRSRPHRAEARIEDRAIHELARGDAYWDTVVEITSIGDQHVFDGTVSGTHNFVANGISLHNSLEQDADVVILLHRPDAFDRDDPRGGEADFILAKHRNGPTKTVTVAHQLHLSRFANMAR
Description: DnaB intein splicing inhibitors, dose response, biochemical, cell-free fluorescence (AID 449749). It counts as functional.

Assay [3] has as its system Vero. Description: viability of Vero cells under compound – cytotoxicity control for flavivirus capping enzyme inhibitors (AID 588742). The format is functional. The note with it: Chlorocebus sabaeus.
Assay [4] concerns the target T3, Protein RecA (Mycobacterium tuberculosis, UniProt P9WHJ3).
T3 sequence (P9WHJ3 whole entry): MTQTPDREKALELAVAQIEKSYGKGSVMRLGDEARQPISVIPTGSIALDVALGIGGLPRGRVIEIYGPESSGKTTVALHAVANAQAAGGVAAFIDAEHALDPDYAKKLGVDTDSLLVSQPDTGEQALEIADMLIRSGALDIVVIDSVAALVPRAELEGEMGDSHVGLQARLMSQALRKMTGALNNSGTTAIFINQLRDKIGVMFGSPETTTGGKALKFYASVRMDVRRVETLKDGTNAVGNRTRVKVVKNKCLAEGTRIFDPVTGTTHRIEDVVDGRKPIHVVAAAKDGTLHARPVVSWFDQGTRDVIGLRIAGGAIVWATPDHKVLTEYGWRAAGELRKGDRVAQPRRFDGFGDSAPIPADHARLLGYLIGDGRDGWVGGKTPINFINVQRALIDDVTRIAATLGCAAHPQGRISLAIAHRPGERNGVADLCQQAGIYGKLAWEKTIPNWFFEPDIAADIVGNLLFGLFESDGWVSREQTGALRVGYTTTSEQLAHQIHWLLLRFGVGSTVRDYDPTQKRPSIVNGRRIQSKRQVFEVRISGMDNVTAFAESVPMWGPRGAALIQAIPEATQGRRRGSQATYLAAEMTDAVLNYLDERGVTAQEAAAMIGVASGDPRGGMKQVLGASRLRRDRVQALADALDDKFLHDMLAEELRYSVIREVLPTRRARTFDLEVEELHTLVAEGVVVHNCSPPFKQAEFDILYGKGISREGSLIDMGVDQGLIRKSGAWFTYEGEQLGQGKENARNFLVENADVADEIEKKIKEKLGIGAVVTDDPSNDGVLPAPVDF
Description: Fluorescence Cell-Free Homogeneous Dose Retest to Identify Inhibitors of RecA-Intein Splicing Activity. [Related pubchem assays (depositor defined):AID2097, AID2223, AID489010, AID492950]. It counts as functional.

Assay [5] relates to INS1. Description: INS-1E survival protection against cytokine death – cell-based, luminescence, retest, dose response (AID 449756).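 Also: cell death triggered by IL-1 beta plus TNF-alpha plus IFN-gamma mixture; protective hits raise ATP signal compared with cytokine alone wells.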 The format is functional. The note with it: Rattus norvegicus.
The target in assay [6] is Genome polyprotein (dengue virus type 2, UniProt P29990). Description: flavivirus cap methylation enzyme inhibition – biochemical, confirmation dose response, primary screen (AID 588689). The format is functional.
Assay [7] addresses Protein S100-A4 (Homo sapiens, UniProt P26447). Description: human S100A4 peptide interaction inhibition curves – biochemical, fluorescence polarization, cherry-picked hits, dose response (AID 687001). The format is functional.
In assay [8] the target is T4, Caspase-6 (Homo sapiens, UniProt P55212).
T4 sequence (P55212 whole entry): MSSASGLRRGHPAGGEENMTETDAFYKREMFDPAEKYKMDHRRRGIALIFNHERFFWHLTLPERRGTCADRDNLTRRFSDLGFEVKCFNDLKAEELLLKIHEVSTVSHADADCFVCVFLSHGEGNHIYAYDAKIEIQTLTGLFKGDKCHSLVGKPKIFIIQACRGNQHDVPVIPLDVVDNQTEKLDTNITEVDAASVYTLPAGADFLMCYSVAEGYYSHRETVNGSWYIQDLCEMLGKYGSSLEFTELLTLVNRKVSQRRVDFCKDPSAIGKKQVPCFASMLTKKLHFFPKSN
Nature of the assay: inhibition of CASP6 peptide cleavage – biochemical, VEID-R110 fluorescence, cherry-pick, dose response (AID 720632).

Assay [9] has as its target T5, Tyrosyl-DNA phosphodiesterase 2 (Homo sapiens, UniProt O95551).
T5 sequence (O95551 whole entry): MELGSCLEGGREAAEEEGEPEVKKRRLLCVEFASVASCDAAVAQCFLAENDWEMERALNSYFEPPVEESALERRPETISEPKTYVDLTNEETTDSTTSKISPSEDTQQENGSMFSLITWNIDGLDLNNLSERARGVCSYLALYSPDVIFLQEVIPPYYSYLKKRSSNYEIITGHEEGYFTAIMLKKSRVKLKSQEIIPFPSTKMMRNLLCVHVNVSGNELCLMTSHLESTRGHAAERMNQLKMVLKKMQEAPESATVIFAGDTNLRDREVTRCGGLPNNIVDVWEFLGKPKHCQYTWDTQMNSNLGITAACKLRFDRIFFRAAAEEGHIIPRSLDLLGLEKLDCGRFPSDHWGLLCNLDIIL
Description: potency against TDP2 phosphodiesterase activity – biochemical, epi absorbance, IC50, dose response (AID 743297).

For assay [10], the target named is T6, Endoribonuclease toxin MazF (Escherichia coli K-12, UniProt P0AE70).
T6 sequence (P0AE70 whole entry): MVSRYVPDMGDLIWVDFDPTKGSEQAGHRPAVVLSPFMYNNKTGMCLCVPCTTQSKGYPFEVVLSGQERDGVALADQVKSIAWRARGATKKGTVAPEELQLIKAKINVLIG
Nature of the assay: MazEF toxin-antitoxin RNase activation – biochemical, fluorescence, single-stranded RNA substrate, SAR follow-up (AID 588603). The format is functional.

Assay [11] addresses T6, Endoribonuclease toxin MazF. Description: activation of MazEF endoribonuclease cleavage – biochemical, fluorescence, single-stranded RNA substrate, uHTS hits, dose response (AID 588481). It counts as functional.
The subject of assay [12] is MEF. Nature of the assay: SAR analysis of small molecule cytotoxicity of MazEF TA System activators in embryonic fibroblast (MEF) cells. [Related pubchem assays (depositor defined):AID504720, AID504743]. It counts as functional. The note with it: Mus musculus.
The target in assay [13] is T6, Endoribonuclease toxin MazF. Description: SAR analysis of small molecule activators of the MazEF TA System via a fluorescence-based single-stranded RNase assay counterscreen. [Related pubchem assays (depositor defined):AID504720, AID504743]. It counts as functional. For orientation: The purpose of a counterscreen is to sort out artefacts and off-target activity.
The target is the same in assay [14]. Description: substrate-only fluorescence increase artefacts – biochemical, single-stranded RNase substrate, counter-screen for MazEF activator project, dose response (AID 588502). The format is functional.

Sequence of Protein S100-A4 (P26447 whole entry): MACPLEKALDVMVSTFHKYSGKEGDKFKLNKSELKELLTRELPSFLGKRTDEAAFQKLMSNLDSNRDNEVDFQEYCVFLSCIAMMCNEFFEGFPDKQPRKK
Sequence of Genome polyprotein (P29990 2492-3391 limits assumed): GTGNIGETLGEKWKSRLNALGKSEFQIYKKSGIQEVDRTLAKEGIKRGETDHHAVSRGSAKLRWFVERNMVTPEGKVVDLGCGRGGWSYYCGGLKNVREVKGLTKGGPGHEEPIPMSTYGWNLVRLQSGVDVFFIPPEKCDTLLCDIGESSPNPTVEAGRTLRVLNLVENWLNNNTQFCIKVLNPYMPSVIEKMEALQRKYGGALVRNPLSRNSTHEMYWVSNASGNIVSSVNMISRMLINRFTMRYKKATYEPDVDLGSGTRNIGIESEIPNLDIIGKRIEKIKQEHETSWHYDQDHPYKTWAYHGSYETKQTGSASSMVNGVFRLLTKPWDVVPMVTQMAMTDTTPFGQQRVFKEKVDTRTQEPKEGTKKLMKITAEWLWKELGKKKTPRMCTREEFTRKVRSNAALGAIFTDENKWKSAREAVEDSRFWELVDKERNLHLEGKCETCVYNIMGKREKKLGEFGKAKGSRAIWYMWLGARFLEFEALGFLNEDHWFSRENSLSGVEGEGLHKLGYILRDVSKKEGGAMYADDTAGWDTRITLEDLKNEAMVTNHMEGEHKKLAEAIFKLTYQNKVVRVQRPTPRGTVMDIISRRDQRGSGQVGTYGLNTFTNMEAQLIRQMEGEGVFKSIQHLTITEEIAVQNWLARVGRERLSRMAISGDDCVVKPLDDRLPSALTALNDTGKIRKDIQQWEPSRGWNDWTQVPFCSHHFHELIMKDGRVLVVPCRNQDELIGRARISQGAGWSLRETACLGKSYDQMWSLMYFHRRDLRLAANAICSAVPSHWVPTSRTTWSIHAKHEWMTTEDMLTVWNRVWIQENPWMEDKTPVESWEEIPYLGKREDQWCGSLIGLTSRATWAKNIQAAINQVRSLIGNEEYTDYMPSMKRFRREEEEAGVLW

`CCC(CNc1cc(OC)cc2cccnc12)NC1CCCCC1` (centres undefined): the EC50 (in general, the concentration that produces a half-maximal response) in [1] was > 195 µM (not active); in assay [4], 1.95 µM (active). Also, the AC50 (usually the concentration at which the activity in the assay is half-maximal) in assay [2] was > 380 µM (inactive); in assay [5], 7.62 µM (active); in assay [7], 5.07 µM (active); in [8], 39 µM (active). The CC50 (as a rule, the concentration that lowers cell viability or growth by half) in assay [3] was > 40 µM (active). For the same compound, the half-maximal inhibitory concentration (IC50) (commonly the midpoint of a concentration-inhibition curve) was 39.2 µM (active) in assay [6] and 113 µM (inactive) in [9].

Take `Cc1ccc(C(=O)Oc2cc(N)n(S(=O)(=O)c3ccc(F)cc3)n2)cc1`: the EC50 in [10] is > 99 µM (inactive); in assay [11], 5.26 µM (active); in assay [13], > 99 µM (inactive); in assay [14], 4.1 µM (active). In assay [12], the CC50 is > 99 µM (inactive).
